Results from PMC5267425, “Identification of small molecule modulators of HIV-1 Tat and Rev protein accumulation” (Retrovirology, 2017).

Tested on: alternative splicing of host transcripts in HeLa rtTA HIV∆Mls cells
Assay: RT-PCR of host alternative splicing events (PSI), capillary electrophoresis
Type: cell-based
Procedure: To assess the effect of compounds on expression/alternative splicing of cellular RNA, two approaches were used. For both, total RNA was prepared from DMSO or compound-treated cells. In the first assay, samples were assayed by medium throughput RT-PCR to determine the inclusion levels of alternatively spliced exons and splice sites located in 73 selected events. 73 primer sets containing a fluorescently (5-FAM) labeled primer for each, were used in RT-PCR. PCR products generated were denatured in formamide and quantified using ABI Prism capillary sequencer (Life Technologies). The fragment analysis was performed on the PeakScanner software (Life Technologies) in batch mode and automated using custom scripts written in Python. The inclusion level of each exon was calculated as the amount of transcripts carrying the alternative exon relative to the total amount of all transcripts detected in the PCR reaction and results are summarized for compound-treatment in comparison to DMSO treatment. In the second assay, extracted RNA was processed using the Illumina TruSeq RNA Sample Preparation Kit (Illumina) according to the manufacturer’s instructions. The cDNA library generated was validated (passed quality control on a Bioanalyzer 1000 DNA chip (Agilent)), normalized and pooled for cluster generation. cDNA libraries were sequenced on the Illumina HiSeq 2500 (paired-end, 125 bp) with version 4 chemistry following manufacturer’s protocols. The full human genome and transcriptomic sequences were downloaded from the UCSC Genome Browser (genome.ucsc.edu) database and Ensembl (www.ensembl.org), respectively, as described by Irimia et al.. Exon annotations and genomic coordinates for alternative splicing (AS) analysis were derived from tables downloaded from the UCSC Genome Browser database. To determine gene expression (GE) or alternative splicing (AS) changes in an unbiased way, the effective number of unique mappable positions in each transcript (i.e. the effective length) was determined by aligning sequences with unique transcriptomic alignment to the human genome using Bowtie. Reads with one unique genomic alignment were then aligned against the canonical transcriptome and, for each transcript, the number of reads with one unique transcriptomic alignment were counted. The expression level of genes was quantified as corrected ‘reads per kilobase of exon model per million mapped reads’ (cRPKM), a widely used metric to estimate gene expression levels. The expression cutoff was 0.5 cRPKM, corresponding to the transcript of the gene being present if there were ≥10 reads that mapped uniquely to a single genomic locus. Approximately 19,847 Ensembl annotated protein-coding genes were compared to create a gene list of differentially expressed genes. Genes were considered differentially expressed if fold changes in cRPKM was ≥2 in compound-treated versus DMSO-treated samples.

[1] = of 70 AS events, 791 30 µM, 833 2 µM

O=C(NC(=S)NNC(=O)c1ccccc1O)c1ccc(-c2ccccc2)cc1 [Compound 833, N-([2-(2-hydroxybenzoyl)hydrazino]carbonothioyl}-4-biphenylcarboxamide]
DPSI AGPAT4_1 chr6:161506598-161506735 (5227833 minus DMSO, mean n=3): -3.33% | DPSI AGPAT4_1 chr6:161507269-161507439 (5227833 minus DMSO, mean n=3): -5.00% | DPSI APLP2_1 chr11:129498717-129498884 (5227833 minus DMSO, mean n=3): -2.67% | DPSI APP_1 chr21:26291546-26291602 (5227833 minus DMSO, mean n=3): -0.67% | DPSI APP_1 chr21:26294201-26294368 (5227833 minus DMSO, mean n=3): -0.67% | DPSI ATP6V0A1_1 chr17:37919833-37920004 (5227833 minus DMSO, mean n=3): 6.67% | DPSI CA12_1 chr15:61406400-61406485 (5227833 minus DMSO, mean n=3): 0.67% | DPSI CA12_1 chr15:61407349-61407382 (5227833 minus DMSO, mean n=3): -2.67% | DPSI CASP9_1 chr1:15703693-15703840* (5227833 minus DMSO, mean n=3): -1.33% | DPSI CAST_1 chr5:96090613-96090669 (5227833 minus DMSO, mean n=3): -3.33% | DPSI CLSTN1_1 chr1:9720143-9720199 (5227833 minus DMSO, mean n=3): -17.00% | DPSI CLSTN1_2 chr1:9739126-9739155 (5227833 minus DMSO, mean n=3): -4.67% | DPSI CRBN_1 chr3:3191846-3191950 (5227833 minus DMSO, mean n=3): 0.00% | DPSI CRBN_1 chr3:3191950-3191953 (5227833 minus DMSO, mean n=3): -2.00% | DPSI CTNND1_1 chr11:57318058-57318129 (5227833 minus DMSO, mean n=3): -6.67% | DPSI DNM1L_1 chr12:32782066-32782143 (5227833 minus DMSO, mean n=3): 7.67% | DPSI DNM1L_1 chr12:32782465-32782497 (5227833 minus DMSO, mean n=3): -4.33% | DPSI DRCTNNB1A_1 chr7:22953096-22953391 (5227833 minus DMSO, mean n=3): -8.33% | DPSI EIF4A2_1 chr7:187988792-187988899 (5227833 minus DMSO, mean n=3): -10.67% | DPSI EIF4A2_1 chr7:187988899-187988904 (5227833 minus DMSO, mean n=3): -7.67% | DPSI EIF4H_1 chr7:73242512-73242572 (5227833 minus DMSO, mean n=3): -5.00% | DPSI ERC1_1 chr12:1091641-1091725 (5227833 minus DMSO, mean n=3): -11.00% | DPSI EXOC7_1 chr17:71598005-71598035 (5227833 minus DMSO, mean n=3): -3.67% | DPSI EXOC7_1 chr17:71598819-71598911 (5227833 minus DMSO, mean n=3): -5.67% | DPSI FAM62B_1 chr7:158238233-158238295 (5227833 minus DMSO, mean n=3): -4.67% | DPSI FAM104A_1 chr17:68720412-68720474 (5227833 minus DMSO, mean n=3): -5.00% | DPSI FGFR1OP2_1 chr12:27004715-27004828 (5227833 minus DMSO, mean n=3): -20.67% | DPSI FIP1L1_1 chr4:53975538-53975646 (5227833 minus DMSO, mean n=3): -14.67% | DPSI GGCT_1 chr7:30504943-30505080 (5227833 minus DMSO, mean n=3): 3.00% | DPSI GGCT_1 chr7:30506676-30506822 (5227833 minus DMSO, mean n=3): -0.33% | DPSI GLK_1 chr2:39388587-39388650 (5227833 minus DMSO, mean n=3): -13.67% | DPSI GM130_1 chr9:130069293-130069374 (5227833 minus DMSO, mean n=3): -18.33% | DPSI GRB10_1 chr7:50651400-50651538 (5227833 minus DMSO, mean n=3): 0.67% | DPSI KIF13A_1 chr6:17879324-17879428 (5227833 minus DMSO, mean n=3): -0.33% | DPSI MACF1_1 chr1:39616720-39616782 (5227833 minus DMSO, mean n=3): 14.00% | DPSI MACF1_5 chr1:39719179-39719289 (5227833 minus DMSO, mean n=3): -18.33% | DPSI MAP3K7_1 chr6:91310992-91311072 (5227833 minus DMSO, mean n=3): 2.67% | DPSI MARK3_1 chr14:103034592-103034618 (5227833 minus DMSO, mean n=3): -9.00% | DPSI MARK3_1 chr14:103036246-103036290 (5227833 minus DMSO, mean n=3): -5.33% | DPSI MBD1_1 chr18:46054554-46054721 (5227833 minus DMSO, mean n=3): -3.33% | DPSI MBNL2_1 chr13:96807051-96807104 (5227833 minus DMSO, mean n=3): 17.33% | DPSI MFF_1 chr2:227901637-227901749 (5227833 minus DMSO, mean n=3): -11.67% | DPSI MRIP_1 chr17:17024646-17024708 (5227833 minus DMSO, mean n=3): -6.33% | DPSI MVK_1 chr12:108501990-108502134 (5227833 minus DMSO, mean n=3): 15.67% | DPSI MVK_1 chr12:108503583-108503738 (5227833 minus DMSO, mean n=3): 16.67% | DPSI NAP1L1_1 chr12:74747418-74747520 (5227833 minus DMSO, mean n=3): -15.67% | DPSI NAP1L1_1 chr12:74748956-74749041 (5227833 minus DMSO, mean n=3): -18.33% | DPSI NPHP3_1 chr3:133898264-133898347 (5227833 minus DMSO, mean n=3): -6.67% | DPSI PDCL_1 chr9:124628716-124628892 (5227833 minus DMSO, mean n=3): 3.67% | DPSI POLDIP3_1 chr22:41327919-41328006 (5227833 minus DMSO, mean n=3): -17.00% | DPSI POMT1_1 chr9:133368281-133368521 (5227833 minus DMSO, mean n=3): 4.67% | DPSI POMT1_1 chr9:133371321-133371428 (5227833 minus DMSO, mean n=3): -10.00% | DPSI RAI14_1 chr5:34849436-34849522 (5227833 minus DMSO, mean n=3): 2.33% | DPSI RAN_1 chr12:129923082-129923127 (5227833 minus DMSO, mean n=3): -2.00% | DPSI RPS24_1 chr10:79467729-79467746 (5227833 minus DMSO, mean n=3): 3.00% | DPSI SEC24B_1 chr4:110622281-110622386 (5227833 minus DMSO, mean n=3): -18.67% | DPSI SETD5_1 chr3:9453533-9453572 (5227833 minus DMSO, mean n=3): -3.33% | DPSI SMN2_1 chr5_h2_hap1:475625-475826 (5227833 minus DMSO, mean n=3): 2.33% | DPSI SMN2_2 chr5_h2_hap1:466192-466246 (5227833 minus DMSO, mean n=3): -7.33% | DPSI SPAG9_1 chr17:46408223-46408261 (5227833 minus DMSO, mean n=3): -12.00% | DPSI SRPK2_1 chr2:104553464-104553557 (5227833 minus DMSO, mean n=3): -9.00% | DPSI SRPK2_1 chr2:104553930-104554023 (5227833 minus DMSO, mean n=3): 5.67% | DPSI TPM1_1 chr15:61140450-61140525 (5227833 minus DMSO, mean n=3): 1.00% | DPSI TPM1_1 chr15:61140965-61141040 (5227833 minus DMSO, mean n=3): -1.00% | DPSI TRIM37_1 chr17:54433741-54433857 (5227833 minus DMSO, mean n=3): -6.67% | DPSI ZNF827_1 chr4:146903692-146903724 (5227833 minus DMSO, mean n=3): -17.67% | DPSI ZNF827_1 chr4:146905581-146905589 (5227833 minus DMSO, mean n=3): 0.00% | DPSI NUMB_2 chr14:72815742-72815885 (5227833 minus DMSO, mean n=3, table row r49): 3.67% | DPSI NUMB_2 chr14:72815742-72815885 (5227833 minus DMSO, mean n=3, table row r63): 6.33% | AS events with DPSI ≤ -10% [1]: 10 | AS events with DPSI ≥ 10% [1]: 1 | AS events with P ≤ 0.05 [1]: 22
